Measurements as given in patent US20260137707A1, “METHODS OF MODULATING ATXN2 EXPRESSION” (University of Utah Research Foundation, priority 2022, published 2026).
Counter-ions that a name gives are not always drawn. Like-named read-outs stand apart in the source and are kept apart here.

Legend:
ATXN2-luc [1] = conditions: H2 cells
ATXN2-luc [2] = test: cells; conditions: for activity at 10 µM: read-out: Luc at 10 μm; for activity at 1 µM: read-out: Luc at 1 μm
[3] = Table 1, 24 hrs, single 10 μM dose, Z-score of luciferase

| SMILES | SD from Mean (ATXN2-luc [1]; [3]) [SD] | SD from Mean (ATXN2-luc [1]; Table 5S, pilot screen, 10 μM) [SD] | activity at 10 µM (ATXN2-luc [2]) [%] | activity at 1 µM (ATXN2-luc [2]) [%] |
| --- | --- | --- | --- | --- |
| CC(N/C(=N\C#N)Nc1ccncc1)C(C)(C)C (stereo not shown) | −4.875 | −4.875 | 17 | – |
| O=C1C=CC(=O)c2ccccc21 [4-NAPHTHOQUINONE] | −3.613 | – | – | – |
| CCCCCCCCCOc1ccc2[nH]cc(CCN)c2c1 [5-Nonyloxytryptamine] | −3.607 | – | 5 | – |
| C[n+]1c2cc(N)ccc2cc2ccc(N)cc21.[Cl-] [ACRIFLA VINIUM HYDROCHLORIDE, ACRIFLAVINIUM HYDROCHLORIDE] | −4.148 | – | – | – |
| CCCCCCc1ccc(O)cc1O.Nc1c2ccccc2nc2ccccc12 [ACRISORCIN] | −3.600 | – | – | – |
| CC[C@@]1(O)C[C@H](O[C@H]2C[C@H](N(C)C)[C@H](O)[C@H](C)O2)c2c(cc3c(c2O)C(=O)c2c(O)cccc2C3=O)[C@H]1C(=O)OC [AKLAVINE HYDROCHLORIDE] | −3.741 | – | – | – |
| Nc1c2ccccc2nc2ccccc12 [AMINACRINE] | −4.103 | – | – | – |
| N=c1ccn2c(n1)O[C@H]1[C@H](O)[C@@H](CO)O[C@H]12 [ANCITABINE HYDROCHLORIDE] | −3.031 | – | – | – |
| CC(=O)O[C@@H]1C[C@@]2(C)[C@H](c3ccoc3)C[C@H]3O[C@]32[C@]2(C)C(=O)C(O)=C3C(C)(C)C(=O)C=C[C@]3(C)[C@@H]12 [ANTHOTHECOL] | −3.020 | – | – | – |
| COc1ccc(C[C@H]2NC[C@H](O)[C@H]2OC(C)=O)cc1 [Anisomycin] | −4.015 | – | – | – |
| CC(C)/N=c1\cc2n(-c3ccc(Cl)cc3)c3ccccc3nc-2cc1Nc1ccc(Cl)cc1 [CLOFAZIMINE] | −2.792 | – | – | – |
| C[C@@H]1O[C@@H](O[C@H]2CC[C@]3(C=O)[C@H]4CC[C@]5(C)[C@@H](C6=CC(=O)OC6)CC[C@]5(O)[C@@H]4CC[C@]3(O)C2)[C@H](O)[C@H](O)[C@H]1O [CONVALLATOXIN] | −3.689 | −3.689 | 11 | 12 |
| CO[C@H]1C=C[C@@]23c4cc5c(cc4CN(C[C@@H]2O)[C@H]3C1)OCO5 [CRINAMINE] | −3.651 | – | – | – |
| CO[C@H]1C[C@H](O[C@H]2CC[C@]3(C=O)[C@H]4CC[C@]5(C)[C@@H](C6=CC(=O)OC6)CC[C@]5(O)[C@@H]4CC[C@]3(O)C2)O[C@H](C)[C@H]1O [CYMARIN] | −4.099 | −4.099 | 16 | 14 |
| Nc1ccn([C@@H]2O[C@H](CO)[C@@H](O)[C@@H]2O)c(=O)n1 [CYTARABINE] | −3.681 | – | – | – |
| CC[C@@]1(O)C(=O)OCc2c1cc1n(c2=O)Cc2cc3ccccc3nc2-1 [Camptothecine (S+)] | −5.283 | – | – | – |
| CC(C)=CCc1c(O)cc2occ(-c3ccc4c(c3)OCO4)c(=O)c2c1O [DERRUBONE] | −3.621 | −3.621 | 15 | 11 |
| C[C@H]1O[C@@H](O[C@H]2[C@@H](O)C[C@H](O[C@H]3[C@@H](O)C[C@H](O[C@H]4CC[C@@]5(C)[C@H](CC[C@@H]6[C@@H]5CC[C@]5(C)[C@@H](C7=CC(=O)OC7)CC[C@]65O)C4)O[C@@H]3C)O[C@@H]2C)C[C@H](O)[C@@H]1O [DIGITOXIN] | −4.100 | −4.100 | 19 | 27 |
| COc1cccc2c1C(=O)c1c(O)c3c(c(O)c1C2=O)C[C@@](O)(C(C)=O)C[C@@H]3O[C@H]1C[C@H](N)[C@H](O)[C@H](C)O1 [Daunorubicin hydrochloride] | −4.155 | – | – | – |
| C[C@]12CC[C@H](O)C[C@H]1CC[C@@H]1[C@@H]2CC[C@]2(C)[C@@H](C3=CC(=O)OC3)CC[C@]12O [Digitoxigenin] | −3.629 | −3.629 | 13 | 38 |
| C[C@]12CC[C@H](O)C[C@H]1CC[C@@H]1[C@@H]2C[C@@H](O)[C@]2(C)[C@@H](C3=CC(=O)OC3)CC[C@]12O [Digoxigenin] | −3.264 | −3.264 | 22 | 90 |
| Cc1c2ccncc2c(C)c2c1[nH]c1ccccc12 [Ellipticine] | −3.485 | – | – | – |
| CC[C@H]1CN2CCc3cc(OC)c(OC)cc3[C@@H]2C[C@@H]1C[C@H]1NCCc2cc(OC)c(OC)cc21 [Emetine dihydrochloride] | −4.840 | −4.840 | 19 | 18 |
| CC(C)=CCC[C@]1(C)C=Cc2c(O)c3c(c(CC=C(C)C)c2O1)O[C@]12C(=C[C@@H]4C[C@H]1C(C)(C)O[C@@]2(C/C=C(/C)C(=O)O)C4=O)C3=O [GAMBOGIC ACID] | −4.841 | – | – | – |
| CC(=O)O[C@H]1CC[C@@]2(C)[C@H](CC[C@@H]3[C@@H]2CC[C@]2(C)[C@@H](C4=CC(=O)OC4)[C@@H](OC(C)=O)C[C@]32O)C1 [GITOXIGENIN DIACETATE] | −4.261 | −4.261 | 21 | 27 |
